From US20230097753A1, “ALPHA-HYDROXYLATED FATTY-ACID METABOLITES, MEDICAL USES AND USE AS BIOMARKERS” (UNIVERSITAT DE LES ILLES BALEARS, priority 2020, published 2023)

Test: Brain fatty acid levels in WT and 5xFAD mice after chronic oral treatment
Format: in vivo, mouse
Conditions: for Brain levels after treatment with DHA-H sodium salt: oral 5-200 mg/kg, 4 months
Procedure: FIG. 2. […] Brain levels of HPA (Al) or DHA (A2) (nmoles/mg of protein) are represented in the ordinate axis, with respect to treatment doses with the sodium salt of DHA-H (A1) and the sodium salt of DHA (A1 and A2) (mg/kg). A1: • animals WT; ∘ 5xFAD. A2: Black bars refer to WT animals and white bars to 5xFAD. The levels of HPA and DHA were determined in the brain of WT and 5xFAD mice after chronic administration of DHA-H sodium salt (4 months; 5 doses/week M-F; between 3 and 7 months of age; sacrifice at 7 months). HPA accumulates in the brain of both mouse strains similarly, depending on the dose of DHA-H sodium salt administered (A1: • r2=0.9292, p=0.0002; ∘ r2=0.9704, p<0.0001). […] Data are shown as mean±standard error, and statistical analysis was done by one-way ANOVA and Tukey multiple evaluation test: *p<0.05 compared to control (mice treated with vehicle). Therefore, when the prodrug DHA-H, in particular its sodium salt, is administered in healthy mice and transgenic models of Alzheimer's disease, a significant accumulation of HPA occurs at the brain level, without the presence of the prodrug (DHA-H) being detected, nor changes in endogenous levels of DHA. […] The number of total errors (B1), reference memory errors (RME) (B2) or working memory errors (WME) (B3), committed, are represented in the ordinate axis against the brain levels of HPA (nmol/mg of protein) in the abscissa axis. The cognitive assessment was done by testing the 8-arm radial labyrinth during the last month of treatment of the same animals shown in FIG. 2A. Individual experimental points from the entire study animal population were plotted and the data from the 5xFAD animals were adjusted to an inverse polynomial regression f(x)=y0+(a/x). The values of r^2 and p corresponding to the regression of each parameter are shown below: total errors, RME and WME versus the brain concentration of HPA: C1: r^2=0.9146 and p=0.0311; C2: r^2=0.9252 and p=0.0243; C3: r^2=0.7785 and p=0.0346. […]

Row | Structure (SMILES) | Brain DHA levels after treatment | Brain levels after treatment with DHA-H sodium salt
1 | CCC=CCC=CCC=CCC=CCC=CCC=CCC(O)C(=O)O (stereo not drawn) [DHA-H, 2-hydroxy-drocosahexaenoic acid] | did not vary significantly | undetectable in the brain
2 | CC/C=C\C/C=C\C/C=C\C/C=C\C/C=C\CCCCC(=O)O [HPA, (6Z,9Z,12Z,15Z,18Z)-heneicosa-6,9,12,15,18-pentaenoic acid] | – | dose-dependent brain accumulation
